Results: PubChem BioAssay AID463229 (Broad Institute, 2010)

Test system: INS-1E rat beta cells, no cytokines, CellTiter-Glo ATP, 48 h
Assay: ATP level change in INS-1E without cytokines, dose response, counter-screen for beta-cell apoptosis protection project, INS-1E rat cells, ATP luminescence, cherry pick (AID 463229)

Row | Compound | AC50
1 | COc1ccc(-n2cc(-c3ccc(C)cc3)[n+]3c2SCC3)cc1 | 0.924 µM
2 | O=S(=O)(c1ccc(Cl)cc1)N1CCN(Cc2ccc(O)c3ncccc23)CC1 | 7.13 µM
3 | FC(F)Sc1ccc(N=C2NN=C(c3ccc4c(c3)OCCO4)CS2)cc1 | 2.9 µM
4 | Cc1ccc2nc(-c3ccc(-c4cccc(Cl)c4)cc3)c(NCc3ccccc3)n2c1 | 2.48 µM
5 | CC1C/C(=C/c2ccncc2)C(=O)/C(=C/c2ccncc2)C1 (configuration not stated) | 4.62 µM
6 | Cc1ccc(C(=O)C[n+]2cc(-c3ccccc3)n3c2CCCCC3)cc1 | 6 µM
7 | CCN(c1ccccc1)S(=O)(=O)c1ccc(C(=O)NC2CCN(Cc3ccccc3)CC2)cc1 | 6.36 µM
8 | O=C(Nc1ccc(Br)c(C(F)(F)F)c1)c1ccc(C(F)(F)F)cc1 | 7.74 µM
9 | CCN(CC)c1ccc(/C=N/NC(=O)c2nnn(-c3nonc3N)c2C(C)C)c(O)c1 | 1.16 µM
10 | Cc1ccc(S(=O)(=O)NCc2ccncc2)cc1C | 4.92 µM
11 | Cc1ccc([N+](=O)[O-])c(OCCN2CCCCCC2)c1 | 7.14 µM
12 | Cc1ccc(C)c(NC(=O)c2ccccc2NS(=O)(=O)c2cc([N+](=O)[O-])ccc2C)c1 | 3.94 µM
13 | COc1ccc(NS(=O)(=O)c2ccc(-c3cnc(C4CC4)o3)cc2)cc1OC | 6.58 µM
14 | CCCn1c(Nc2nc3ccccc3n2C)nc2ccccc21 | 7.26 µM
15 | CCC(=O)NC(c1ccccc1OC)c1ccc2cccnc2c1O (configuration not stated) | 4.29 µM
16 | N#CCC(=O)N/N=C/c1cc(-c2ccccc2)n(-c2ccc(Cl)cc2)c1-c1ccccc1 | 2.29 µM
17 | COc1cccc(/C=N/Nc2ccc([N+](=O)[O-])cn2)c1O | 7.78 µM
18 | CC(C)(C)n1nnnc1C(c1ccc(F)cc1)N(Cc1ccc(F)cc1)Cc1ccco1 (configuration not stated) | 9.25 µM
19 | O=C(CCC(=O)Nc1ccc(Br)cc1)N/N=C/c1ccccc1O | 14.6 µM
20 | CCN(CC)C(=O)c1cc([N+](=O)[O-])cc2c1-c1ccc([N+](=O)[O-])cc1C2=C(C#N)C#N | 9.06 µM
21 | O=C(N/N=C/c1ccc[nH]1)c1ccc(COc2cccc3cccnc23)cc1 | 1.92 µM
22 | COC(=O)c1sc(-c2ccc(C(C)(C)C)cc2)cc1NC(=O)/C=C/C(=O)O | 13.8 µM

Row | Compound | AC50
23 | COc1ccc(C(=O)/C(=C\c2ccco2)N2C=CC=CC2=C(C#N)C#N)cc1 | 7.26 µM
24 | CCCCC(CC)CN=C(N)NC(N)=NCCCCCCN=C(N)NC(N)=NCC(CC)CCCC (configuration not stated) | 2.35 µM
25 | COC(=O)C1CCN(C(=O)c2cc(-c3ccc(Cl)s3)nc3ccccc23)CC1 | 3.24 µM
26 | CCC(=O)NC(c1cccs1)c1cc(Cl)c2cccnc2c1O (configuration not stated) | 5.49 µM
27 | COc1cccc2sc(Nc3nc(-c4ccccn4)cs3)nc12 | 3.75 µM
28 | COc1ccc2c(c1)C(=O)[C@H](O)[C@@H](c1ccc(OC)c(Br)c1)O2 | 7.97 µM
29 | COc1ccc2[nH]c3c(C)c4ccncc4c(C)c3c2c1 | 4.13 µM
30 | COc1ccc(C(=O)NCC(=O)N/N=C/c2ccc([N+](=O)[O-])s2)cc1OC | 13.5 µM
31 | O=C(Nc1ccc(-c2noc(-c3cccs3)n2)cc1)c1cccnc1 | 13 µM
32 | O=C(Nc1ccc(Cl)cc1)Nc1ccc(Cl)c(Cl)c1 | 6.98 µM
33 | C=C1C(=O)O[C@@H]2C[C@@H](C)[C@@H]3C4OC4C(=O)[C@@]3(C)[C@@H](O)[C@H]12 (some centres not stated) | 7.57 µM
34 | Cc1nc2ccccc2n1Cc1ccc(Br)cc1 | 5.63 µM
35 | Cc1ccc(-c2c[n+]3c(n2-c2ccccc2)CCC3)cc1 | 2.02 µM
36 | Cc1oc2c(c1C(=O)N1CCOCC1)C(=O)c1ccccc1C2=O | 8.12 µM
37 | CC(=O)/C=C/n1c(=S)oc2ccccc21 | 8.87 µM
38 | CCCSc1nsc(NC(=O)Nc2ccc(F)cc2F)n1 | 6.99 µM
39 | Nc1c(C(=O)Nc2ccc(S(=O)(=O)N3CCCC3)cc2)sc2nc3cc4c(cc3cc12)CCC4 | 4.63 µM
40 | C/C(=N\NC(=O)c1nnn(-c2nonc2N)c1CN1CCc2ccccc21)c1ccccc1O | 11.4 µM
41 | Cc1ccccc1CS(=O)(=O)c1nnc([C@H](Cc2ccccc2)NC(=O)OC(C)(C)C)o1 | 13 µM
42 | Cc1cccc(N2C(=S)N=C(Nc3c(C)cccc3C)C23CCOC(C)(C)C3)c1 (configuration not stated) | 3.79 µM
43 | N=c1c2c(-c3ccccc3)c(-c3ccccc3)n(Cc3ccco3)c2ncn1CCCN1CCOCC1 | 16.2 µM
44 | O=C(Oc1c(CN2CCOCC2)cc(Cl)c2cccnc12)c1ccc(F)cc1 | 14 µM

Row | Compound | AC50
45 | c1ccc(CNc2nc(NCc3ccccc3)c3ccccc3n2)cc1 | 11.1 µM
46 | Cc1sc2ncnc(NCC(O)c3ccc([N+](=O)[O-])cc3)c2c1C (configuration not stated) | 5.1 µM
47 | FC(F)(F)c1cnc(NNC(=S)Nc2ccc(Cl)cc2)c(Cl)c1 | 6.99 µM
48 | N=c1c2c(n(Cc3ccc(Br)cc3)c3c1CCC3)CCCC2 | 3.04 µM
49 | O=c1c2ccccc2nc(COc2ccccc2)n1/N=C/c1cc([N+](=O)[O-])ccc1O | 14.7 µM
50 | c1ccc(-[n+]2nc(Nc3cccc4ccccc34)sc2-c2c3ccccc3cc3ccccc23)cc1 | 3.86 µM
51 | COc1ccc(CNCCC(c2ccc(OC(C)C)cc2)c2ccccc2OC)cc1 (configuration not stated) | 12.2 µM
52 | O=C1C(=O)c2ccccc2-c2ccccc21 | 1.01 µM
53 | NC(=O)c1c(-c2ccc(Cl)cc2Cl)csc1NC(=O)Cc1ccccc1 | 4.08 µM
54 | O=C(Nc1nc(-c2ccccn2)cs1)c1cccc(-n2cnnn2)c1 | 7.05 µM
55 | C=C1[C@@H](O)[C@@H]2O[C@]3(CC[C@H](/C=C/[C@@H](C)[C@@H]4CC(C)=CC5(O[C@H](C[C@@](C)(O)C(=O)OC)CC[C@H]5O)O4)O3)CC[C@H]2O[C@@H]1[C@@H](O)C[C@H](C)[C@H]1OC2(CCCCO2)CC[C@H]1C (some centres not stated) | < 0.195 µM
56 | CC(C)Oc1ccc(C(CCN)C2CCCCC2)cc1 (configuration not stated) | 13.3 µM
57 | Cc1cccc(/C=N/NC(=O)c2c(-c3ccccc3)noc2C)c1O | 7.61 µM
58 | c1ccc(CNc2nc(-c3ccccn3)nc3ccccc23)cc1 | 7.68 µM
59 | COc1cc(OC)c2cc(C(=O)N/N=C/c3cccc(OC)c3O)[nH]c2c1 | 15.5 µM
60 | COc1ccccc1NC(=O)Cn1cc(C(=O)c2ccco2)c2ccccc21 | 8.7 µM
61 | Cc1ccc(-c2nn(-c3ccccc3)cc2/C=N/NC(=O)c2ccc3c(c2)OCO3)cc1 | 5.63 µM
62 | O=[N+]([O-])c1c(Nc2ccc(O)cc2)cc(Cl)c2nonc12 | 8.76 µM
63 | O=C1/C(=N\S(=O)(=O)c2cccs2)C([n+]2cccc(Cc3ccccc3)c2)=C([O-])c2ccccc21 | 7.28 µM
64 | Cc1nnc(N/N=C/c2cc([N+](=O)[O-])c(N3CCC(C)CC3)cc2N2CCC(C)CC2)n1N | 2.54 µM
65 | CCCOc1nc2c(c(=O)n(C)c(=O)n2C)n1Cc1cccc2ccccc12 | 14.4 µM
66 | COc1ccccc1CNCC(O)Cn1c2ccccc2c2ccccc21 (configuration not stated) | 12.9 µM

Row | Compound | AC50
67 | CCN1CCN(Cc2ccc(NC(=O)c3ccc(C)c(NC(=O)c4c[nH]c5cc(C(F)(F)F)ccc5c4=O)c3)cc2C(F)(F)F)CC1 | 7.07 µM
68 | Cc1ccnc2c1ccc1c(C)ccnc12 | 3.39 µM
69 | O=S(=O)(c1ccc(NC(=S)NCc2cccnc2)cc1)N1CCCCC1 | 1.62 µM
70 | NC1=C(Br)C(=O)c2ccccc2C1=O | 18.2 µM
71 | COc1ccc(-c2cn(Cc3ccc(C(=O)c4ccccc4)cc3)nn2)cc1 | 11.6 µM
72 | O=[N+]([O-])c1cc(C(F)(F)F)ccc1NCCCCNS(=O)(=O)c1ccc(Cl)cc1 | 6.94 µM
73 | COc1ccc(-c2csc(NC(=O)C3CCN(c4ncnc5sc(C)c(C)c45)CC3)n2)cc1OC | 4.88 µM
74 | CC(C)NC(=S)N/N=C/c1cc(Br)ccc1O | 12.6 µM
75 | O=C(NCCc1cn2ccccc2n1)c1cc(COc2ccc3ncccc3c2)on1 | 8.04 µM
76 | C(=N\Nc1nncc2ccccc12)/c1ccccn1 | 4.47 µM
77 | Cc1cc(C)c(CN2CCN(C(=O)Cn3cnc4c(OCc5ccccc5)ncnc43)CC2)c(C)c1 | 6.91 µM
78 | Cc1ccc(-n2ncc3c2CCCC3NC(=O)c2ocnc2C)cc1C (configuration not stated) | 6.97 µM
79 | CCN(CC)c1ccc(C(=O)N/N=C/c2ccccc2OC(F)F)cc1 | 15.6 µM
80 | Cc1ccc(S(=O)(=O)Nc2ccc(O)c3ccccc23)c(C)c1 | 13.7 µM
81 | CCC(=O)NC(c1ccc(C)cc1)c1cc(Cl)c2cccnc2c1O (configuration not stated) | 7.97 µM
82 | O=C(NCc1cccnc1)/C(=C\c1ccc(-c2ccc(Br)cc2)o1)S(=O)(=O)c1ccccc1 | 4.27 µM
83 | COc1ccc(-c2cn(-c3ccc(OC)cc3)c3[n+]2-c2ccccc2CC3)cc1 | 0.806 µM
84 | c1ccc(-c2csc3ncnc(NCC4COc5ccccc5O4)c23)cc1 (configuration not stated) | 2.79 µM
85 | O=C(N/N=C/c1c(O)ccc2ccccc12)c1cccnc1 | 4.07 µM
86 | O=C(/C(=C/c1ccc(Cl)cc1)c1nc2ccccc2[nH]1)c1ccccc1 | 4.04 µM
87 | COc1ccccc1N1CCN(Cc2cc(Br)c(O)c3ncccc23)CC1 | 5.72 µM
88 | Cc1ccc2c(c1)nnn2C1CCN(S(=O)(=O)c2ccc(C(=O)N3C(C)CCCC3C)cc2)CC1 (configuration not stated) | 7.75 µM

Row | Compound | AC50
89 | Cc1nc(N2CCN(C(=O)c3ccco3)CC2)c2c3c(sc2n1)CC(C)CC3 (configuration not stated) | 5.51 µM
90 | Cc1oc2c(c1C(=O)c1ccccc1)C(=O)C(=O)c1ccccc1-2 | 3.52 µM
91 | O=C(NC(=S)NNC(=O)c1cnccn1)c1ccc(F)cc1 | 3.48 µM
92 | O=C(C1CCC1)N1CCc2cc(S(=O)(=O)Nc3ccc4c(c3)OCCO4)ccc21 | 7.92 µM
93 | CCOc1cc(CNCCc2ccc(S(N)(=O)=O)cc2)ccc1OCc1ccc(Cl)cc1 | 7.84 µM
94 | Cc1c(N/N=C(\C#N)C(=O)c2ccc(Cl)cc2)c(=O)n(-c2ccccc2)n1C | 5.35 µM
95 | O=C(N/N=C/c1sc2ccccc2c1O)c1cccc2ccccc12 | 4.8 µM
96 | Cc1ccc(NC(=O)C2CCN(S(=O)(=O)c3ccc(N4CCCC4=O)cc3)CC2)cc1Cl | 2.37 µM
97 | COC(=O)c1ccc2c(c1)C(C)(C)C(/C=C/c1ccc(OC)c(OC)c1OC)=[N+]2C | 2.16 µM
98 | CCc1cc(SC#N)cc(C)c1NC(=O)CCl | 4.52 µM
99 | O=C(c1cc(-c2ccccc2Cl)nc2ccccc12)N1CCN(c2ccccn2)CC1 | 4.44 µM
100 | Cc1ccc(/C=N/NC(=O)c2c(-c3ccccc3)noc2C)c(O)c1 | 7.91 µM
101 | COc1cc(CC(=O)Nc2nc(-c3ccc(F)c(F)c3)cs2)cc(OC)c1OC | 7.17 µM
102 | CCCNC(=O)c1ccc2c(=O)c(O)c(-c3ccc(C)cc3)[nH]c2c1 | 8.71 µM
103 | O=NN(CCc1ccncc1)c1ccc(OCc2ccccc2)cc1 | 8.16 µM
104 | COc1ccc(CCNc2ccc(C(CC(N)=O)NC(=O)c3ccc(Br)cc3)cc2[N+](=O)[O-])cc1 (configuration not stated) | 16.8 µM
105 | Cc1sc2ncnc(NCC(O)c3ccccc3)c2c1C (configuration not stated) | 10.5 µM
106 | CCn1c(NN=O)nc2ccccc21 | 7.85 µM
107 | O=[N+]([O-])c1cccc(-c2cn3nc(-c4ccccc4)c(-c4ccccc4)nc3n2)c1 | 10 µM
